The source of these data is article PMC10987829 (iScience, 2024).

Assay [1] concerns the target H2A/H2B dimers (Xenopus laevis, UniProt P02281+P06897). Briefly: Protein thermal shift. To be noted: H2A/H2B 0.5 mg/mL, ligand 1.2:1 molar ratio, 50 mM Bis-Tris propane pH 7.4, 150 mM NaCl, 10X SYPRO Orange; apo H2A/H2B Tm 46.1 ± 0.2°C; three replicates. Format: binding.
Assay [2] deals with Npm2 A2mockglu4 peptide (…), 'pseudo-glutamylated' (Xenopus laevis). Briefly: other fluorescence titration.
The test system of assay [3] is H3/H4. As to conditions: cited from earlier work.
Assay [4] concerns mononucleosomes. Briefly: Disassembly of premade mononucleosomes. The assay is classed as biochemical. To be noted: salt-dialysis mononucleosomes, increasing chaperone.

On to “DYDEEGEEADDEEGEEEADEDHDPDFDPK [Nap1 A3 (350–382)]”, for which, in assay [1], the “change of H2A/H2B melting temperature (Tm)” value was found to be 6.7 °C.

For the molecule “Xenopus laevis H2A/H2B heterodimer (from UniProt P06897;P02281) (complex)”, in assay [2], the Kd stood at 300 nM. Regarding “Npm2 Tail (119–146): Npm2 C-terminal Tail domain peptide, residues 119–146, purified as previously described (AMEEDYSWAEEEDEGEEEEEEEEDPESP)”, the “fold lower affinity for H3/H4 than for H2A/H2B” value in assay [3] is 5 fold.

B1: Nap1glu: TTLL4-treated (glutamylated) full-length Nap1 (protein)
chain: MANIDNKGQTELDQQDMEDVEDVEEEETGEDANSKARQLTAQMMQNPQVLAALQERLDDLVGTPTGYIESLPKVVKRRVNALKNLQVKCAQIEAKFYEEVHELERKYAALYQPLFDKRSDIINATYEPTEEECEWKVEEEDISGDLKEKAKLEEEKKDEEKEDPKGIPEFWLTVFKNVDLLSDMLQEHDEPILKHLKDIKVKFSDAGQPMSFTLEFYFEPNEFFTNEVLTKTYKMRSEPDESDPFSFDGPEIMGCTGCLIDWKKGKNVTLKTIKKKQKHKGRGTVRTVTKTVPNDSFFNFFTPPEVPENGELDDDAEAILTADFEIGHFLRERIIPRSVLYFTGEAIEDDDDDYDEEGEEADDEEGEEEADEDNDPDYEPKV
With B1, the “disassembly of premade mononucleosomes” value in assay [4] is given as “neither Nap1 nor Nap1glu were able to disassemble premade mononucleosomes”.

Broadly, the Kd is the free concentration of one partner at which half of the binding sites on the other are occupied at equilibrium, for simple one-to-one binding. High values mean weaker binding, low ones tighter binding.
